Measurements from ChEMBL document CHEMBL1201862, “PubChem BioAssay data set” (2004).
Activity calls are given as the source filed them.

What was measured:
HEK293 [1] = experiment: SAR Analysis of small molecule inhibitors of T-cell specific antigen receptor-induced NF-kB activation in a HEK-293T cell line using a luminescence assay - Set 2. [Related pubchem assays (depositor defined):AID435003, AID435012, AID489026]; format: functional, cell-based; conditions: Homo sapiens
[2] = inhibitors of firefly luciferase expression or activity, dose response, H4 neuroglioma cells, luminescence (AID 1990); format: functional, cell-based
Jurkat [3] = experiment: SAR Analysis of small molecule inhibitors of T-cell specific antigen receptor-induced NF-kB activation in a Jurkat cell line using a luminescence assay - Set 2. [Related pubchem assays (depositor defined):AID435003, AID435012, AID465]; format: functional, cell-based; conditions: Homo sapiens
[4] = Luminescence Cell-Based Dose Response HTS to Identify Inhibitors of 5'UTR Stem-Loop Driven Prion Protein mRNA Translation in H4 Neuroglioblastoma Cells. [Related pubchem assays: 1827 (Project Summary), 1813 (Primary HTS)]; format: functional
HEK293 [5] = experiment: cytotoxicity in HEK293T NF-kB-Luc cells, SAR follow-up, cytotoxicity control for NF-kB activator project, cell-based, resazurin fluorescence (AID 493251); format: functional; conditions: Homo sapiens
INS1 = experiment: beta cell apoptosis inhibitors, cytokine rescue, dose response, luminescence, retest (AID 449756); format: functional, cell-based; conditions: Rattus norvegicus;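 also: cell death triggered by IL-1 beta plus TNF-alpha plus IFN-gamma mixture; protective hits raise ATP signal compared with cytokine alone wells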
[6] = inhibitors of SNCA 5'UTR-driven reporter translation, confirmation, H4 neuroglioma cells, luminescence (AID 1988); format: functional, cell-based
Vero = experiment: cells; format: functional; conditions: Chlorocebus sabaeus
[7] = mammalian cell cytotoxicity, dose response, cytotoxicity control, plate reader, cherry-pick samples (AID 504397); format: functional, cell-based
CAAX prenyl protease 2 = CAAX prenyl protease 2 (Saccharomyces cerevisiae S288c, UniProt Q03530); experiment: yeast Rce1 CaaX protease inhibitors, dose response, biochemical, plate reader, dry powder retest (AID 588851)
HEK293 [8] = experiment: cells; format: functional, cell-based; conditions: Homo sapiens
HEK293 [9] = experiment: NOD2 signaling inhibitors in MDP-stimulated cells, cell-based, uHTS, luminescence (AID 2001); format: functional; conditions: Homo sapiens
Tumor necrosis factor = Tumor necrosis factor (Homo sapiens, UniProt P01375); experiment: TNFa-triggered NF-kB activation inhibitors, SAR follow-up, cell-based, revised (AID 2337); format: functional
HEK293 [10] = experiment: cells; conditions: Homo sapiens
HEK293 [11] = experiment: cells; format: functional, cell-based; conditions: Homo sapiens; remark: listed apart in the source
[12] = target: Nucleotide-binding oligomerization domain-containing protein 1 (Homo sapiens, UniProt Q9Y239); experiment: NOD1 signaling inhibitors, SAR follow-up, revised (AID 2333); format: functional
HEK293 [13] = experiment: NOD1 signaling inhibitors, primary screen, cell-based, luminescence, uHTS (AID 1578); format: functional; conditions: Homo sapiens
[14] = target: Glycogen synthase kinase-3 beta (Homo sapiens, UniProt P49841); experiment: Inhibition of Human GSK-3 beta Activity Measured in Biochemical System Using Microfluidics - 2063-05_Inhibitor_Dose_DryPowder_Activity. [Related pubchem assays (depositor defined):AID2709]
[15] = target: Glycogen synthase kinase-3 alpha (Homo sapiens, UniProt P49840); experiment: Inhibition of Human GSK-3 alpha Activity Measured in Biochemical System Using Microfluidics - 2063-06_Inhibitor_Dose_DryPowder_Activity. [Related pubchem assays (depositor defined):AID2709]
Jurkat [16] = experiment: antigen receptor-induced NF-kB inhibitors, dose response, Jurkat, luciferase reporter, luminescence, B- and T-cell (AID 489004); format: functional, cell-based; conditions: Homo sapiens;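 also: NF-kB luciferase reporter Jurkat cells stimulated with PMA plus ionomycin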
[17] = cytotoxicity in HEK-293T NF-kB-Luc cells, dose response, cytotoxicity control for B/T-cell NF-kB inhibitor project, cell-based, uHTS hits (AID 489019); format: functional;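 also: IC50 reflects cytotoxicity as loss of cell viability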
[18] = target: Multidrug resistance protein CDR1 (Candida albicans, UniProt P43071); experiment: CaCDR1 efflux pump inhibitors in yeast, dose response, S. cerevisiae AD1-8u, singleplex, Cherry Pick1 hits (AID 588606); format: functional
[19] = target: Benomyl/methotrexate resistance protein (Candida albicans, UniProt P28873); experiment: CaMdr1 efflux pump inhibitor potency, dose response, singleplex, Cherry Pick2 set (AID 623992); format: functional; conditions: read-out: EC50_MICROM
[20] = target: RNA-editing ligase 1, mitochondrial (Trypanosoma brucei brucei, UniProt P86926); experiment: TbREL1 ligase inhibitors, dose response, biochemical, fluorescence, Trypanosoma brucei (AID 1117295); format: functional
[21] = growth induction of Burl-1 ts yeast mutant, dose response, counter-screen for SUMOylation pathway inhibitor project, whole organism, S. cerevisiae, luminescence (AID 463199); format: functional
[22] = target: NAD-dependent protein deacylase sirtuin-5, mitochondrial (Homo sapiens, UniProt Q9NXA8); experiment: SIRT5 desuccinylase inhibitors, dose response, biochemical, fluorescence imaging, cherry-pick, set 5 (AID 720591);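 also: desuccinylation of succinyl peptide AMC substrate read as fluorescence after trypsin release; potency of inhibitors that lower fluorescence and may act on trypsin instead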
[23] = target: T1, Fructose-bisphosphate aldolase (Mycobacterium tuberculosis, UniProt P9WQA3); experiment: Fluorescence-based biochemical high throughput dose response assay for inhibitors of the fructose-bisphosphate aldolase (FBA) of M. tuberculosis.; format: functional
T1 sequence (P9WQA3 whole entry): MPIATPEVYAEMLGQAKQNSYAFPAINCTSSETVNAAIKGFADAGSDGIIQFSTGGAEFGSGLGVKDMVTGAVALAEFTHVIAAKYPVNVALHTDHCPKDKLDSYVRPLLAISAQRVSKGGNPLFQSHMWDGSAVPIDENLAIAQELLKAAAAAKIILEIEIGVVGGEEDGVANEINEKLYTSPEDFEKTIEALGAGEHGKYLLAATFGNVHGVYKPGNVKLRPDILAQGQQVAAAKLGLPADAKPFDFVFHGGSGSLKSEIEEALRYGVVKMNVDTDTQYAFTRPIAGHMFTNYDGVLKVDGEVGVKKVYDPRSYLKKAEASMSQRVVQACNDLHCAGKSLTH

[24] = target: T2, Carboxy-terminal domain RNA polymerase II polypeptide A small phosphatase 1 (Homo sapiens, UniProt Q9GZU7); experiment: inhibitors of CTDSP1, concentration-response testing, biochemical assay, absorbance-based, actives from ultra-high-throughput screening (AID 540297); format: functional
T2 sequence (Q9GZU7 whole entry): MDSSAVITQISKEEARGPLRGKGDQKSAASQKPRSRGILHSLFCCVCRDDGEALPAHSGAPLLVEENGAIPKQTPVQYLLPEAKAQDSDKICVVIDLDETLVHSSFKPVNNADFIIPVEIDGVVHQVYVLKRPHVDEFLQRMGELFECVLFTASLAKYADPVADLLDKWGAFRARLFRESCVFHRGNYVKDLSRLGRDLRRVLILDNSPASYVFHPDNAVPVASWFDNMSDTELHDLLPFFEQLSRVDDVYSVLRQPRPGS

Keap1/Nrf2 = Keap1/Nrf2 (Homo sapiens, UniProt Q14145); experiment: Keap1-Nrf2 protein-protein interaction inhibitors, dose response, biochemical, fluorescence polarization, cherry-picked samples (AID 588683)
[25] = target: T3, Corticotropin-releasing factor receptor 2/Corticotropin-releasing factor-binding protein (Homo sapiens, UniProt P24387+Q13324); experiment: activators of CRF receptor 2 with binding protein – uHTS hits, confirmation (AID 602473); format: functional; conditions: read-out: EC50_Mean
T3 sequence (Q13324 whole entry): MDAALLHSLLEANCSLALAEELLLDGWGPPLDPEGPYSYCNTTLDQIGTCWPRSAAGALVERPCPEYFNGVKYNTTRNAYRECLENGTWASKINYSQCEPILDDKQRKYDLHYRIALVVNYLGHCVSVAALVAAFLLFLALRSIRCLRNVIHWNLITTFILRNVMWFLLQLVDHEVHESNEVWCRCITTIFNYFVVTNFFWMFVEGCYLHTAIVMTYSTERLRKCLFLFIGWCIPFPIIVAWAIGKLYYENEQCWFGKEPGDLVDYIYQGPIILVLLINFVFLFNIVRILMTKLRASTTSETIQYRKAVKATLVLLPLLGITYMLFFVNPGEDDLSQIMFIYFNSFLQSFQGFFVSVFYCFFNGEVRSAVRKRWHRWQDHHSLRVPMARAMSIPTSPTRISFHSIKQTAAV
T3 sequence (P24387 whole entry): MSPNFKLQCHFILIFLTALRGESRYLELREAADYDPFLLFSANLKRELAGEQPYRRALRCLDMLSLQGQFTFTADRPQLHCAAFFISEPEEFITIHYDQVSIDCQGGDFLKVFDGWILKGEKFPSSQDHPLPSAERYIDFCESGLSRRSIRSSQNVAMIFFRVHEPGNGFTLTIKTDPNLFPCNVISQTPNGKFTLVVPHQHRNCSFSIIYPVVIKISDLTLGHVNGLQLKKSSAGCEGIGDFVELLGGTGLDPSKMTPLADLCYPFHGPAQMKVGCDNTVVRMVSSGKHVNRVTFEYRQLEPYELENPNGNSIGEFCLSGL

[26] = target: Dual specificity protein kinase CLK1 (Homo sapiens, UniProt P49759); experiment: CLK1 kinase inhibitors, off-target check, dose response, selectivity assay for Dyrk1A inhibitor project, biochemical, cherry-picked samples (AID 588811)
[27] = target: Dual specificity protein phosphatase 3 (Homo sapiens, UniProt P51452); experiment: SAR VHR1 Fluorescent Assay for In Vitro dose response studies Set 2. [Related pubchem assays (depositor defined):AID1654, AID1661, AID1878]; format: functional
[28] = target: Dual specificity protein phosphatase 6 (Rattus norvegicus, UniProt Q64346); format: functional;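 also: confirmatory in vitro dose-response testing of MKP-3 inhibition; recombinant His-tagged MKP-3 made in E. coli BL21 with OMFP substrate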
Hexokinase HKDC1 = Hexokinase HKDC1 (Homo sapiens, UniProt Q2TB90); experiment: HKDC1 hexokinase inhibitors, SAR follow-up, biochemical, set 2 (AID 588355); format: functional
Hexokinase-1 = Hexokinase-1 (Homo sapiens, UniProt P19367); experiment: HK1 enzyme inhibition by HKDC1 hits, SAR follow-up, selectivity assay for HKDC1 inhibitor project, biochemical, set 2, resazurin fluorescence coupled readout (AID 588356); format: functional
[29] = C. albicans growth with fluconazole, confirmation, fluorescence, retest (AID 2467); format: functional, cell-based
[30] = NIH-3T3 fibroblast cytotoxicity, dose response, cytotoxicity control, cell-based, fluorescence, Alamar Blue, secondary assay (AID 2327); format: functional;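 also: NIH-3T3 mouse fibroblasts cultured with fluconazole at 8 µg/mL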
[31] = target: ATP-dependent molecular chaperone HSP82 (Candida albicans (strain WO-1) (Yeast), UniProt C4YTQ8); experiment: loss of DOC-induced GRE-beta-galactosidase reporter signal, dose response, Hsp90 inhibitor project, S. cerevisiae, luminescence (AID 2400); format: functional, cell-based;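 also: beta-galactosidase luminescence from glucocorticoid response element reporter as proxy for Hsp90 function; inhibitor potency where signal loss means Hsp90 inhibition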
[32] = target: Serine/threonine-protein phosphatase (Candida dubliniensis (strain CD36 / CBS 7987 / NCPF 3949 / NRRLY-17841) (Yeast), UniProt B9W6M3); experiment: calcineurin pathway inhibitors in yeast reporter, dose response, S. cerevisiae, CDRE-lacZ, luminescence, secondary (AID 2388); format: functional, cell-based;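 also: yeast reporter cells carrying a calcineurin-responsive lacZ construct stimulated with calcium chloride; luminescent beta-galactosidase reporter signal in whole cells rather than isolated phosphatase activity; potency for inhibition where a drop in reporter signal means calcineurin blockade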
Chain of Serine/threonine-protein phosphatase (B9W6M3 whole entry): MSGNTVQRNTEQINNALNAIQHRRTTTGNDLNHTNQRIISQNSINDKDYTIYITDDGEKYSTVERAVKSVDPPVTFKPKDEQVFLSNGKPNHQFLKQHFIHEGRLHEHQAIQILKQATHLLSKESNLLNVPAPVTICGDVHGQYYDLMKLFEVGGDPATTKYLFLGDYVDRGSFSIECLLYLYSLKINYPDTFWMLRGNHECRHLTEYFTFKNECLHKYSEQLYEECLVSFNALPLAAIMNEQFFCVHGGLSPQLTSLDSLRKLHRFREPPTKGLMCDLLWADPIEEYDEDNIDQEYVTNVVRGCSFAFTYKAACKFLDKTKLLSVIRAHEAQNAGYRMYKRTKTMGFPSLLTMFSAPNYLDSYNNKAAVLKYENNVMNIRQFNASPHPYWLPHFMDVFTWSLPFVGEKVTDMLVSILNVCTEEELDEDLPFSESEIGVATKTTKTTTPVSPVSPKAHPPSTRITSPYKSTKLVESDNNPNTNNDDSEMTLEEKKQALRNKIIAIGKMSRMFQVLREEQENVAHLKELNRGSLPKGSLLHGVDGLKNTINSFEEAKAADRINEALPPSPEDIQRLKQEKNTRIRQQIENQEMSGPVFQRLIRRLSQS

Chain of NAD-dependent protein deacylase sirtuin-5, mitochondrial (Q9NXA8 whole entry): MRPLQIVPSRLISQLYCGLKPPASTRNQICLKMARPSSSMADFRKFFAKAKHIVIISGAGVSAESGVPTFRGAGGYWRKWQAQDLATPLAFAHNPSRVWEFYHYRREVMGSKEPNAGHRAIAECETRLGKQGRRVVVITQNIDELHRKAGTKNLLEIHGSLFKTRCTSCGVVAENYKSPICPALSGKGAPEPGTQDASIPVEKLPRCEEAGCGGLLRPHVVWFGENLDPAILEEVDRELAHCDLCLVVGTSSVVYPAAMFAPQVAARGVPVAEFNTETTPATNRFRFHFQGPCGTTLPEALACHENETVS
Chain of Tumor necrosis factor (P01375 whole entry): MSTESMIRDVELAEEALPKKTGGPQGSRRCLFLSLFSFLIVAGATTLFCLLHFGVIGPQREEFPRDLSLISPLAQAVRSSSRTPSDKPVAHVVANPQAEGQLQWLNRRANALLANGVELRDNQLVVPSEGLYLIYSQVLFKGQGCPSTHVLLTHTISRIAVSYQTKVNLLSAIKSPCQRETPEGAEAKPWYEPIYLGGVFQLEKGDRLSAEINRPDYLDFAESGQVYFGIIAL
Chain of Dual specificity protein phosphatase 3 (P51452 whole entry): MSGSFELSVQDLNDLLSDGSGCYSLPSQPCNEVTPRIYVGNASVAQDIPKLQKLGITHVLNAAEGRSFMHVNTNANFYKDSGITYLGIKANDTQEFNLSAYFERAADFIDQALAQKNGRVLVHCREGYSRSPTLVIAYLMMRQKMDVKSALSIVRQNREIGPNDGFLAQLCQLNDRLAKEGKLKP
Chain of Keap1/Nrf2 (Q16236 whole entry): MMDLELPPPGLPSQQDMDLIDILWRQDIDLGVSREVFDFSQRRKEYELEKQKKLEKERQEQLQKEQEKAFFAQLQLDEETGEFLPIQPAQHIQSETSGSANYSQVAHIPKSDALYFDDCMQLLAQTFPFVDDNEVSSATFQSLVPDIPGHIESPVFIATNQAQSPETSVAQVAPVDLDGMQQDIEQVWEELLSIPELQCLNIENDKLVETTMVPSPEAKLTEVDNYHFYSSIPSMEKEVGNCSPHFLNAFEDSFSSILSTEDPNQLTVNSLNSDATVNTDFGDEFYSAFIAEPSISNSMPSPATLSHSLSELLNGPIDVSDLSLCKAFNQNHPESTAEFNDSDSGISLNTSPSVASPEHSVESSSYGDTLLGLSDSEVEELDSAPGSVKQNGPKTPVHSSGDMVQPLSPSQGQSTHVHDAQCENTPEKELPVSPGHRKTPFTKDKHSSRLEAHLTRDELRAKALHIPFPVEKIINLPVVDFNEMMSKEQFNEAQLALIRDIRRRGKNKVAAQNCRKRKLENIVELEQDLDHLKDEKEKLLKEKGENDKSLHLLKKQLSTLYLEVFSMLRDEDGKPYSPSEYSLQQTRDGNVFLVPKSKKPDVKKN
Chain of Keap1/Nrf2 (Q14145 whole entry): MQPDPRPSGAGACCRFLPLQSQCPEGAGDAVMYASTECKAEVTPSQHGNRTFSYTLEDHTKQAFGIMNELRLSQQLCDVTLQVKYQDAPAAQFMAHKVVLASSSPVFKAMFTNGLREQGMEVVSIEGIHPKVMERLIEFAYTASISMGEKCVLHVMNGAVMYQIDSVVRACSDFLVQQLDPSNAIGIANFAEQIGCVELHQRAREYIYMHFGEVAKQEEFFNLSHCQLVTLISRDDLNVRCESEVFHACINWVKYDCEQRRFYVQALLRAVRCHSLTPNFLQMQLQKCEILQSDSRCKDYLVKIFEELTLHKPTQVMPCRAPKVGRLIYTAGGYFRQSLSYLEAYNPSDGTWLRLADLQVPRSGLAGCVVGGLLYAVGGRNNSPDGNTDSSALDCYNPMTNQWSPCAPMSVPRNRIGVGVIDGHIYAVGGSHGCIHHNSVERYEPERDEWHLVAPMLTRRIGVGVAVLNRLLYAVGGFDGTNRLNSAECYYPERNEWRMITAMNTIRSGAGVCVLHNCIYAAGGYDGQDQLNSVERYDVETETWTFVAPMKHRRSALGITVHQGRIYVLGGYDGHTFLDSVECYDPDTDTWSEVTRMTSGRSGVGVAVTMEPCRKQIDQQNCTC
Chain of Hexokinase-1 (P19367 whole entry): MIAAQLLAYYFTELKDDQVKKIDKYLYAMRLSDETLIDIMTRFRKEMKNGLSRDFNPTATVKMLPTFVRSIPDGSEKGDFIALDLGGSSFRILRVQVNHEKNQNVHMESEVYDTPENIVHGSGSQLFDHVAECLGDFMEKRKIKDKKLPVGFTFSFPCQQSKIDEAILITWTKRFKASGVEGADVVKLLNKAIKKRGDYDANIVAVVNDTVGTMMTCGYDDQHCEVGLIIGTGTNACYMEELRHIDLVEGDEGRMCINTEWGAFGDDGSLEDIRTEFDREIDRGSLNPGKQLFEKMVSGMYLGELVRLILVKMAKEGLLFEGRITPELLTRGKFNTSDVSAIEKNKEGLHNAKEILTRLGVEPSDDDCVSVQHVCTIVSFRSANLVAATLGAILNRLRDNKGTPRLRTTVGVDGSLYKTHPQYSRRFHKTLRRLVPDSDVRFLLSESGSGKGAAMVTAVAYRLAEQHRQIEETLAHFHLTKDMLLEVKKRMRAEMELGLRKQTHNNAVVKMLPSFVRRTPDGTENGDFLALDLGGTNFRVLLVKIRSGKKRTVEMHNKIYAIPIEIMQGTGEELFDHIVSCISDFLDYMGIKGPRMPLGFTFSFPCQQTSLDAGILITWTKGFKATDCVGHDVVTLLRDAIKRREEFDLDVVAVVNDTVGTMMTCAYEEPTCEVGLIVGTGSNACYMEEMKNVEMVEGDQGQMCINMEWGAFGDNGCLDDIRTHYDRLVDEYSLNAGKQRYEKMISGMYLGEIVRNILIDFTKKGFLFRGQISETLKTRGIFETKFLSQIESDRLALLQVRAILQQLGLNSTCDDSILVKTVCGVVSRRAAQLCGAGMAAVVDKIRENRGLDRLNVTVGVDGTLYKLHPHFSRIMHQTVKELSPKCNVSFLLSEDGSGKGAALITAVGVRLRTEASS
Chain of Benomyl/methotrexate resistance protein (P28873 whole entry): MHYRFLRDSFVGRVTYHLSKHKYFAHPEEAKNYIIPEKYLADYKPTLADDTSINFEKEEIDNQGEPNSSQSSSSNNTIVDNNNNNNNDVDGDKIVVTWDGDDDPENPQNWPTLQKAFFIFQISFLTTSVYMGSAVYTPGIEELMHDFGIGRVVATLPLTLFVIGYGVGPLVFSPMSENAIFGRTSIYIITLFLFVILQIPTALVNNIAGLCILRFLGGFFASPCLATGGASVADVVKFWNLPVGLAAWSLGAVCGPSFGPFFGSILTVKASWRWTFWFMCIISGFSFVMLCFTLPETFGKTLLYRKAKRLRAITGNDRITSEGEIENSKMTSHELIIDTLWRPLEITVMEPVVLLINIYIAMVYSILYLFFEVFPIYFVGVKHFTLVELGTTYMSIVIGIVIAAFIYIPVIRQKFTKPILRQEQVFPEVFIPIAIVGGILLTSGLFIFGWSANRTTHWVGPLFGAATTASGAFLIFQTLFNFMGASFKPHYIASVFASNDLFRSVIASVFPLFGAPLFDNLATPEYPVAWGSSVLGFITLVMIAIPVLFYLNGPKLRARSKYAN
Chain of RNA-editing ligase 1, mitochondrial (P86926 whole entry): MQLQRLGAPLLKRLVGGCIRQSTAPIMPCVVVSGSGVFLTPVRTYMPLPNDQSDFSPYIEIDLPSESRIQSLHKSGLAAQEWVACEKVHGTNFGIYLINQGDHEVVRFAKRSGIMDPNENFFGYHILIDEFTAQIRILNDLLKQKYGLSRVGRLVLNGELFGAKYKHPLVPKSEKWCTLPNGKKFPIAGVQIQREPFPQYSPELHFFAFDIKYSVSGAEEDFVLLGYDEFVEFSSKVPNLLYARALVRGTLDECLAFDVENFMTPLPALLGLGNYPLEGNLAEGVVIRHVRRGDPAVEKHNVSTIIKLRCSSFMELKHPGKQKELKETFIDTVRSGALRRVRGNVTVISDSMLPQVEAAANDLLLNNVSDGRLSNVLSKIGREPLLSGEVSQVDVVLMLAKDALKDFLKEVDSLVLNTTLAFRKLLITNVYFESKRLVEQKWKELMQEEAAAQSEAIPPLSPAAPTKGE
Chain of Glycogen synthase kinase-3 beta (P49841 whole entry): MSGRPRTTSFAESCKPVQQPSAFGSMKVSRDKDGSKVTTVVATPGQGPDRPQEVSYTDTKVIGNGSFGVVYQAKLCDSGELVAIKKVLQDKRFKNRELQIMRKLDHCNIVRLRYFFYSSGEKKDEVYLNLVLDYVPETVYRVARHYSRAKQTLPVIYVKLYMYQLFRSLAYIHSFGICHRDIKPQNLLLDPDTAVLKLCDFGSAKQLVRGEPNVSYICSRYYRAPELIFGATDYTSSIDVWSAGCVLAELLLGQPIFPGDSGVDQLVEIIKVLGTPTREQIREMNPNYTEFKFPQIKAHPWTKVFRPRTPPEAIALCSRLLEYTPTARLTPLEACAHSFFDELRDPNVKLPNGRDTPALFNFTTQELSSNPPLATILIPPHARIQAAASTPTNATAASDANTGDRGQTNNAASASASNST

CCN1CCN(c2c(Cl)cccc2NC(=O)c2ccc([N+](=O)[O-])o2)CC1
IC50 (HEK293 [1]): 17.9 µM (active) | EC50 [2]: 10.6 µM (active) | IC50 (Jurkat [3]): 10.6 µM (active) | EC50 [4]: > 120 µM (not active) | IC50 (HEK293 [5]): 18.7 µM (active) | AC50 (INS1): 3.68 µM (active) | EC50 [6]: 11.1 µM (active) | CC50 (Vero): 23.4 µM (active)

Cc1cc(N2CCN(C(c3ccccc3)c3ccccc3)CC2)n2ncnc2n1
AC50 [7]: 159 µM (active) | AC50 (CAAX prenyl protease 2): 7.39 µM (active)

NC(=O)c1ccc(N2CCN(S(=O)(=O)c3ccccc3)CC2)c([N+](=O)[O-])c1
IC50 (HEK293 [8]): > 20 µM (inactive) | IC50 (HEK293 [9]): > 20 µM (inactive) | IC50 (Tumor necrosis factor): > 20 µM (inactive) | IC50 (HEK293 [10]): > 20 µM (inactive) | IC50 (HEK293 [11]): 16 µM (active) | IC50 [12]: 5.86 µM (active) | EC50 (HEK293 [13]): 4.72 µM (active)

Nc1nc(Nc2cccc(F)c2)nc(NCCO)c1[N+](=O)[O-]
AC50 [14]: 0.228 µM (active) | AC50 [15]: 0.953 µM (active)

Cc1cc(Cl)c(S(=O)(=O)N2CCCCCC2)cc1OCC(=O)NC1CCCCC1
IC50 (Jurkat [16]): > 80 µM (inactive) | IC50 [17]: > 80 µM (inactive)

CCO[C@@H]1OC(C(=O)Nc2ccccc2)=C[C@H](c2ccc(Br)cc2)[C@H]1CCCO
EC50 [18]: 11.7 µM (active) | EC50 [19]: 25.2 µM (active)

CCCSc1nnc(NC(=O)CSc2sc3c(O)cc(O)nc3c2C#N)s1
IC50 [20]: 50.7 µM (inactive) | AC50 [21]: 106 µM (active) | AC50 [22]: > 30 µM (inactive) | IC50 [23]: > 9.99 µM (inactive) | IC50 [24]: 3.46 µM (active)

CCN(CC)S(=O)(=O)c1ccc(C(=O)OCCN2C(=O)c3cccc4c(N5CCOCC5)ccc(c34)C2=O)cc1
AC50 (Keap1/Nrf2): 13.9 µM (active) | EC50 [25]: 6.47 µM (active)

CCCNc1ncnc2ccc(-c3ccc4c(c3)OCO4)cc12
AC50 [26]: 0.00314 µM (active)

COc1ccc(C(=O)NC2CCSc3ccccc32)cc1S(N)(=O)=O (centres undefined)
IC50 [27]: > 100 µM (inactive) | IC50 [28]: > 100 µM (inactive)

O=C(O)C(c1ccccc1)N1C(=O)c2ccccc2C1=O (centres undefined)
IC50 (Hexokinase HKDC1): > 80 µM (inactive) | IC50 (Hexokinase-1): > 80 µM (inactive)

O=[N+]([O-])c1cc(Cl)c2cccnc2c1O
EC50 [29]: 0.084 µM (active) | EC50 [30]: 11.1 µM (active) | EC50 [31]: 3.67 µM (active) | EC50 [32]: > 180 µM (inactive)
